The source of these data is US20020161002A1, “Use of catecholamine reuptake inhibitors to enhance memory” (priority 2001, published 2002).

Structures are written as SMILES.

The subject of data set [1] is IA memory in the rat. Description: Inhibitory Avoidance (IA) task, normal rats. Format: in vivo. To be noted: for performance on the IA task, normal rats: one hour before, p<0.05 relative to all other groups; for long-term retention of the IA task: second retention test one week after the first, no additional training or drug. As to the method: An exemplary passive avoidance test utilizes an apparatus that consists of a lit chamber that can be separated from a dark chamber by a sliding door. At training, the animal is placed in the lit chamber for some period of time, and the door is opened. The animal moves to the dark chamber after a short delay—the latency—that is recorded. Upon entry into the dark chamber, the door is shut closed and a foot shock is delivered.
The Inhibitory Avoidance (IA) task is a well-studied behavioral paradigm which can provide the researcher with a consistent and long-lasting measure of memory. The paradigm consists of one training trial and one retention trial. Test articles may be administered to the rats either before or after training. […] The objective of the following experiments was to investigate the effects of methylphenidate on IA memory in the rat.

Data set [2] relates to rats. Description: Activity level tests (10 minute session). Particulars: 0.5 mg/kg; 10 minute period one hour after injection; FIGS. 16-21.
The subject of data set [3] is fornix lesion rats. Description: Inhibitory Avoidance (IA) task, rats with lesions of the fornix (amnesic rats). Format: in vivo, rat. Particulars: one hour before; for performance of treated fornix animals compared with normal, saline injected animals: Student-Newman-Keuls post hoc test. The source says: Animal models for studying fornix-mediated memory consolidation have previously been described. See, for example, Taubenfield et al., Supra. The fornix-lesioned animals can be used for drug screening, e.g., to identify dosages of the subject reuptake inhibitors which enhance memory consolidation. The lesioned mammal can have a lesion of the fornix or a related brain structure that disrupts memory consolidation (e.g., perirhinal cortex, amygdala, medial septal nucleus, locus coeruleus, hippocampus, mammallary bodies). Lesions in the mammal can be produced by mechanical or chemical disruption. For example, the fornix lesion can be caused by surgical ablation, electrolytic, neurotoxic and other chemical ablation techniques, or reversible inactivation such as by injection of an anesthetic, e.g., tetrodotoxin or lidocaine, to temporarily arrest activity in the fornix.
In one embodiment, the animal can be a rat. Briefly, the animals are anesthetized, e.g., with intraperitoneal injections of a ketamine-xylazine mixture and positioned in a Kopf stereotaxic instrument. A sagittal incision is made in the scalp and a craniotomy is performed extending 2.0 mm posterior and 3.0 mm lateral from Bregma. An aspirative device, e.g., with a 20 gauge tip, is mounted to a stereotaxic frame (Kopf Instruments) and fimbria-fornix is aspirated by placing the suction tip at the correct sterotaxic location in the animals brain. Unilateral aspirative lesions are made by suction through the cingulate cortex, completely transecting the fimbria fornix unilaterally, and (optionally) removing the dorsal tip of the hippocampus as well as the overlying cingulate cortex to inflict a partial denervation on the hippocampus target. See also, Gage et al., (1983) Brain Res. 268:27 and Gage et al. (1986) Neuroscience 19:241.
The Inhibitory Avoidance (IA) task is a well-studied behavioral paradigm which can provide the researcher with a consistent and long-lasting measure of memory. The paradigm consists of one training trial and one retention trial. Test articles may be administered to the rats either before or after training. Improved memory, as a result of test compound administration, is evident as increased latency on the retention trial. The objective of the following experiments was to investigate the effects of methylphenidate on IA memory in the rat.
In the next experiment, we investigated whether the performance of amnesic rats could be improved by administration of methylphenidate. In this experiment, control rats and rats with lesions of the fornix received injections of either saline or methylphenidate (5 mg/kg), and one hour later, were tested on the IA task.
In the next experiment, we investigated whether the performance of amnesic rats could be improved by administration of amphetamine. […]

Consider `C[C@@H](N)Cc1ccccc1` [R-(−)amphetamine], for which the “retention of the IA task (second, verifying experiment)” value in data set [1] (0.5 mg/kg one hour prior to training, 24 hour retention interval, 0.46 mA shock, unpaired t-test p<0.002, FIG. 15) is reported as “significantly improved retention of the task”. Also, in data set [1] (0.5, 1.0, 2.0 or 4.0 mg/kg one hour prior to training, 24 hour retention interval, 0.46 mA shock, FIG. 14), the “dose required for improved retention of the IA task, compared with S-(+)amphetamine” value is “a much lower dose of R-(−)amphetamine is required for the same improved retention effect”. In addition, the “retention of the IA task at doses above 0.5 mg/kg” value in data set [1] (1.0, 2.0 or 4.0 mg/kg versus 0.5 mg/kg, one hour prior to training, 24 hour retention interval, FIG. 14) is reported as “did not further improve the retention results”. Also, in data set [2], the “activity levels (distance, movements, movement time, rears, stereotyped movements, resting time) versus saline control” value is listed as “no significant effects on the activity levels”.

In the case of `C[C@H](N)Cc1ccccc1` [S-(+)amphetamine], the “retention of the IA task” value is “improved retention of the task” in data set [1] (2 mg/kg (200 standard units) one hour prior to training, 24 hour retention interval, 0.46 mA shock, FIG. 9); “no effect” in data set [1] (25 standard units/kg, injected thirty minutes prior to training, FIG. 4); “no effect” in data set [1] (50 standard units/kg, injected thirty minutes prior to training, FIG. 4); “no effect” in data set [1] (100 standard units/kg, injected thirty minutes prior to training, FIG. 4); “improved retention of the task” in data set [1] (200 standard units, injected thirty minutes prior to training, FIG. 4). Besides, in data set [1] (200 standard units/kg, FIG. 8), the “performance on the IA task, normal rats” value is “dramatically enhanced the performance of normal rats”. In data set [1] (200 standard units/kg, unpaired t-test p<0.01, FIG. 5), the “retention of the IA task (second, verifying experiment)” value is given as “significantly improved retention of the task”. Also, the “long-term retention of the IA task” value in data set [1] (F(4,47)=3.688, p<0.01, FIG. 7) is recorded as “performed significantly better than rats that had received control injections of vehicle solution”. For the same molecule, in data set [3] (200 standard units/kg, FIG. 8), the “performance on the IA task, fornix lesion rats” value is reported as “appeared to improve the performance of the fornix lesion rats”. For the same molecule, the “performance of treated fornix animals compared with normal, saline injected animals” value in data set [3] (200 standard units/kg) is “not significantly different from normal, saline injected animals”.

Regarding `COC(=O)C(c1ccccc1)C1CCCCN1` (centres unmarked) [methylphenidate], in data set [1] (5 mg/kg, FIG. 3), the “performance on the IA task, normal rats” value was “dramatically enhanced the performance of normal rats”. The “retention of the IA task” value in data set [1] (50 standard units/kg, injected thirty minutes prior to training, FIG. 1) is listed as “improved retention”; in data set [1] (100 standard units/kg, injected thirty minutes prior to training, FIG. 1) it was “no effect”; in data set [1] (150 standard units/kg, injected thirty minutes prior to training, FIG. 1), “no effect”. Also, the “optimal pre-training drug administration time” value in data set [1] (50 standard units/kg, time of administration varied) was “most effective when administered to the rats one hour prior to training”. The “retention of the IA task (second, verifying experiment)” value in data set [1] (50 standard units/kg, unpaired t-test p<0.03, FIG. 2) is on record as “significantly improved retention of the task”. In data set [1], the “long-term retention of the IA task” value is “this improvement is long lasting”. Moreover, the “performance on the IA task, fornix lesion rats” value in data set [3] (5 mg/kg, FIG. 3) is “appeared to improve the performance of the fornix lesion rats”. Also, the “performance of treated fornix animals compared with normal, saline injected animals” value in data set [3] (5 mg/kg) is “not significantly different from normal, saline injected animals”.
